Like-named read-outs stand apart in the source and are kept apart here.
Tests used:
Type in all cases: in vivo
[1] = tested on: Surinam grass (Brachiaria decumbens); assay: Test B pre/postemergence; details: Urochloa decumbens; for pest or weed control at 125 g/ha: 125 g ai/ha; for pest or weed control at 62 g/ha: 62 g ai/ha
Method in brief: (§1)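 Pre: compound (non-phytotoxic solvent + surfactant) applied to freshly planted seeds. Post: same formulation sprayed on 2–18 cm plants, 1- to 4-leaf. Readout: visual control rating 0–100 vs controls, 13–15 d, greenhouse.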

[2] = tested on: barnyardgrass (Echinochloa crus-galli); assay: Test B pre/postemergence; details: Echinochloa crus-galli, scale 0 to 100 (0 no effect, 100 complete control); for pest or weed control at 62 g/ha: 62 g ai/ha; for pest or weed control at 125 g/ha: 125 g ai/ha
Method in brief: as §1

[3] = tested on: cocklebur (Xanthium strumarium); assay: Test B pre/postemergence; details: for pest or weed control at 125 g/ha: 125 g ai/ha
Method in brief: as §1

[4] = tested on: corn (Zea mays); assay: Test B pre/postemergence; details: Zea mays
Method in brief: as §1

[5] = tested on: crabgrass (Digitaria sanguinalis); assay: Test B pre/postemergence; details: Digitaria sanguinalis; for pest or weed control at 62 g/ha: 62 g ai/ha; for pest or weed control at 125 g/ha: 125 g ai/ha
Method in brief: as §1

[6] = tested on: giant foxtail (Setaria faberii); assay: Test B pre/postemergence; details: Setaria faberi; for pest or weed control at 125 g/ha: 125 g ai/ha; for pest or weed control at 62 g/ha: 62 g ai/ha
Method in brief: as §1

[7] = tested on: lambsquarters (Chenopodium album); assay: Test B pre/postemergence; details: Chenopodium album; for pest or weed control at 62 g/ha: 62 g ai/ha; for pest or weed control at 125 g/ha: 125 g ai/ha
Method in brief: as §1

[8] = tested on: morningglory (Ipomoea coccinea); assay: Test B pre/postemergence; details: Ipomoea; for pest or weed control at 62 g/ha: 62 g ai/ha; for pest or weed control at 125 g/ha: 125 g ai/ha
Method in brief: as §1

[9] = tested on: pigweed (Amaranthus retroflexus); assay: Test B pre/postemergence; details: Amaranthus retroflexus; for pest or weed control at 62 g/ha: 62 g ai/ha; for pest or weed control at 125 g/ha: 125 g ai/ha
Method in brief: as §1

[10] = tested on: velvetleaf (Abutilon theophrasti); assay: Test B pre/postemergence; details: Abutilon theophrasti; for pest or weed control at 62 g/ha: 62 g ai/ha; for pest or weed control at 125 g/ha: 125 g ai/ha
Method in brief: as §1

[11] = tested on: wheat (Triticum aestivum); assay: Test B pre/postemergence; details: Triticum aestivum, scale 0 to 100 (0 no effect, 100 complete control); for plant injury at 62 g/ha: 62 g ai/ha; for plant injury at 125 g/ha: 125 g ai/ha
Method in brief: as §1

[12] = tested on: blackgrass (Alopecurus myosuroides); assay: Test B postemergence; details: Alopecurus myosuroides, post-emergence, scale 0 to 100 (0 no effect, 100 complete control), read-out: Blackgrass plant response rating
Method in brief: as §1

[13] = tested on: wild oat (Avena fatua); assay: Test B postemergence; details: Avena fatua, post-emergence, scale 0 to 100 (0 no effect, 100 complete control), read-out: Oat, Wild plant response rating
Method in brief: as §1

[14] = tested on: barnyardgrass (Echinochloa crus-galli); assay: Test B flooded paddy test; details: Flood, scale 0 to 100
Method in brief: (§2)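 Plants were grown to the 2-leaf stage before treatment, then kept in a greenhouse for 13 to 15 days. Injury was rated visually against untreated controls on a 0 to 100 scale, where 0 is no effect and 100 is complete control.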

[15] = tested on: duck salad (Heteranthera limosa); assay: Test B flooded paddy test; details: Heteranthera limosa, Flood, scale 0 to 100, read-out: Plant response rating, Ducksalad
Method in brief: as §2

[16] = tested on: rice (Oryza sativa); assay: Test B flooded paddy test; details: Flood, scale 0 to 100
Method in brief: as §2

[17] = tested on: umbrella sedge (Cyperus difformis); assay: Test B flooded paddy test; details: Flood, scale 0 to 100
Method in brief: as §2

[18] = post-emergence, Postemergence, scale 0 to 100 (0 no effect, 100 complete control), read-out: Surinam Grass plant response rating
[19] = post-emergence, Postemergence, read-out: Barnyardgrass plant response rating
[20] = pre-emergence, Preemergence, read-out: Plant response rating, Barnyardgrass
[21] = post-emergence, Postemergence, scale 0 to 100 (0 no effect, 100 complete control), read-out: Crabgrass plant response rating
[22] = post-emergence, Postemergence, scale 0 to 100 (0 no effect, 100 complete control), read-out: Foxtail, Giant plant response rating
[23] = post-emergence, Postemergence, scale 0 to 100 (0 no effect, 100 complete control), read-out: Lambsquarters plant response rating
[24] = post-emergence, Postemergence, scale 0 to 100 (0 no effect, 100 complete control), read-out: Morningglory plant response rating
[25] = post-emergence, Postemergence, scale 0 to 100 (0 no effect, 100 complete control), read-out: Pigweed plant response rating
[26] = post-emergence, Postemergence, scale 0 to 100 (0 no effect, 100 complete control), read-out: Velvetleaf plant response rating
[27] = post-emergence, Postemergence, read-out: Wheat plant response rating
[28] = pre-emergence, Preemergence, read-out: Plant response rating, Wheat

Nc1nc(C2CC2)nc(C(=O)[O-])c1Cl.[Na+] [Compound 77, 6-amino-5-chloro-2-cyclopropyl-4-pyrimidinecarboxylic acid monosodium salt]
pest or weed control at 125 g/ha [1, 18]: 80% | pest or weed control at 62 g/ha [1, 18]: 70% | pest or weed control at 125 g/ha ([1]; pre-emergence, Preemergence, scale 0 to 100 (0 no effect, 100 complete control), read-out: Plant response rating, Surinam Grass): 90% | pest or weed control at 62 g/ha ([1]; pre-emergence, Preemergence, scale 0 to 100, 0 no effect, 100 complete control, read-out: Plant response rating, Surinam Grass): 60% | pest or weed control at 62 g/ha [2, 19]: 60% | pest or weed control at 125 g/ha [2, 19]: 90% | pest or weed control at 62 g/ha [2, 20]: 70% | pest or weed control at 125 g/ha [2, 20]: 90% | Cocklebur plant response rating ([3]; Postemergence, 62 g ai/ha, scale 0 to 100 (0 no effect, 100 complete control)): 70 | pest or weed control at 125 g/ha ([3]; Xanthium strumarium, post-emergence, Postemergence, scale 0 to 100 (0 no effect, 100 complete control), read-out: Cocklebur plant response rating): 100% | pest or weed control at 62 g/ha ([3]; Xanthium strumarium, pre-emergence, Preemergence, 62 g ai/ha, scale 0 to 100, 0 no effect, 100 complete control, read-out: Plant response rating, Cocklebur): 80% | pest or weed control at 125 g/ha ([3]; Xanthium strumarium, pre-emergence, Preemergence, scale 0 to 100 (0 no effect, 100 complete control), read-out: Plant response rating, Cocklebur): 100% | plant injury at 62 g/ha ([4]; post-emergence, Postemergence, 62 g ai/ha, scale 0 to 100 (0 no effect, 100 complete control), read-out: Corn plant response rating): 30% | plant injury at 125 g/ha ([4]; post-emergence, Postemergence, 125 g ai/ha, scale 0 to 100 (0 no effect, 100 complete control), read-out: Corn plant response rating): 80% | Corn plant response rating (crop injury, 0 = no effect, 100 = complete kill) at 62 g/ha ([4]; pre-emergence, Preemergence, 62 g ai/ha, scale 0 to 100, 0 no effect, 100 complete control): 70% | Corn plant response rating (crop injury, 0 = no effect, 100 = complete kill) at 125 g/ha ([4]; pre-emergence, Preemergence, 125 g ai/ha, scale 0 to 100 (0 no effect, 100 complete control)): 80% | pest or weed control at 62 g/ha [5, 21]: 70% | pest or weed control at 125 g/ha [5, 21]: 80% | pest or weed control at 62 g/ha ([5]; pre-emergence, Preemergence, scale 0 to 100, 0 no effect, 100 complete control, read-out: Plant response rating, Crabgrass): 80% | pest or weed control at 125 g/ha ([5]; pre-emergence, Preemergence, scale 0 to 100 (0 no effect, 100 complete control), read-out: Plant response rating, Crabgrass): 90% | pest or weed control at 125 g/ha [6, 22]: 80% | pest or weed control at 62 g/ha [6, 22]: 70% | pest or weed control at 125 g/ha ([6]; pre-emergence, Preemergence, scale 0 to 100 (0 no effect, 100 complete control), read-out: Plant response rating, Foxtail, Giant): 90% | pest or weed control at 62 g/ha ([6]; pre-emergence, Preemergence, scale 0 to 100, 0 no effect, 100 complete control, read-out: Plant response rating, Foxtail, Giant): 70% | pest or weed control at 62 g/ha [7, 23]: 100% | pest or weed control at 125 g/ha [7, 23]: 100% | pest or weed control at 62 g/ha ([7]; pre-emergence, Preemergence, scale 0 to 100, 0 no effect, 100 complete control, read-out: Plant response rating, Lambsquarters): 100% | pest or weed control at 125 g/ha ([7]; pre-emergence, Preemergence, scale 0 to 100 (0 no effect, 100 complete control), read-out: Plant response rating, Lambsquarters): 100% | pest or weed control at 62 g/ha [8, 24]: 100% | pest or weed control at 125 g/ha [8, 24]: 100% | pest or weed control at 62 g/ha ([8]; pre-emergence, Preemergence, scale 0 to 100, 0 no effect, 100 complete control, read-out: Plant response rating, Morningglory): 100% | pest or weed control at 125 g/ha ([8]; pre-emergence, Preemergence, scale 0 to 100 (0 no effect, 100 complete control), read-out: Plant response rating, Morningglory): 100% | pest or weed control at 62 g/ha [9, 25]: 90% | pest or weed control at 125 g/ha [9, 25]: 100% | pest or weed control at 62 g/ha ([9]; pre-emergence, Preemergence, scale 0 to 100, 0 no effect, 100 complete control, read-out: Plant response rating, Pigweed): 100% | pest or weed control at 125 g/ha ([9]; pre-emergence, Preemergence, scale 0 to 100 (0 no effect, 100 complete control), read-out: Plant response rating, Pigweed): 100% | pest or weed control at 62 g/ha [10, 26]: 80% | pest or weed control at 125 g/ha [10, 26]: 90% | pest or weed control at 62 g/ha ([10]; pre-emergence, Preemergence, scale 0 to 100, 0 no effect, 100 complete control, read-out: Plant response rating, Velvetleaf): 80% | pest or weed control at 125 g/ha ([10]; pre-emergence, Preemergence, scale 0 to 100 (0 no effect, 100 complete control), read-out: Plant response rating, Velvetleaf): 100% | plant injury at 62 g/ha [11, 27]: 50% | plant injury at 125 g/ha [11, 27]: 60% | plant injury at 62 g/ha [11, 28]: 70% | plant injury at 125 g/ha [11, 28]: 70% | pest or weed control at 62 g/ha ([12]; 62 g ai/ha): 50% | pest or weed control at 125 g/ha ([12]; 125 g ai/ha): 60% | pest or weed control at 62 g/ha ([13]; 62 g ai/ha): 50% | pest or weed control at 125 g/ha ([13]; 125 g ai/ha): 60% | pest or weed control at 500 g/ha ([14]; Echinochloa crus-galli, 500 g ai/ha, read-out: Plant response rating, Barnyardgrass): 60% | Plant response rating, Barnyardgrass ([14]; 125 g ai/ha): 0 | pest or weed control at 125 g/ha ([15]; 125 g ai/ha): 40% | pest or weed control at 500 g/ha ([15]; 500 g ai/ha): 80% | Plant response rating, Rice ([16]; 125 g ai/ha): 0 | plant injury at 500 g/ha ([16]; Oryza sativa, 500 g ai/ha, read-out: Plant response rating, Rice): 50% | Plant response rating, Sedge, Umbrella ([17]; 125 g ai/ha): 0 | Plant response rating, Sedge, Umbrella ([17]; 500 g ai/ha): 40

Source: patent US8802597B2, “Herbicidal pyrimidines” (E I du Pont de Nemours and Company, priority 2003, dated 2014)
